Measured values reported in ChEMBL document CHEMBL1134245, “Two novel and potent 3-[(o-methoxyphenyl)piperazinylethyl]-5-phenylthien” (Bioorg Med Chem Lett, 2001).
pKi: −log10 of the molar value.

Columns and labels:
[1] = biological target: T1, Alpha-1B adrenergic receptor (Rattus norvegicus, UniProt P15823); test: In vitro functional activity at Alpha-1B adrenergic receptor in rat spleen; assay type: tissue-based; details: read-out: pA2 (converted)
T1 sequence (P15823 whole entry): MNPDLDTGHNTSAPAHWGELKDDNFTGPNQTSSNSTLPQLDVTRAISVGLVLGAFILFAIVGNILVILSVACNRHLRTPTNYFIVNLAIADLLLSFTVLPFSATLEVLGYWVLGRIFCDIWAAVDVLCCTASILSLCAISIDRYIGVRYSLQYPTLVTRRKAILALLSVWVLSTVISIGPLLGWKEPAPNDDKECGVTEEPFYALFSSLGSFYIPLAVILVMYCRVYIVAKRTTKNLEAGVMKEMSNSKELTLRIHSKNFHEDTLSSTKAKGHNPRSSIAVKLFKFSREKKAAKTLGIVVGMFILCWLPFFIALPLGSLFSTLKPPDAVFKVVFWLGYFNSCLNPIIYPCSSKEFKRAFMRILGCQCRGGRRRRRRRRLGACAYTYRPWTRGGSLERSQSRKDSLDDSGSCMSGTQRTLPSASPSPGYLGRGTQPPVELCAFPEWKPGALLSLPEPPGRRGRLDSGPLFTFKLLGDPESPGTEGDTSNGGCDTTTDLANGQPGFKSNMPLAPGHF

[2] = biological target: D(2) dopamine receptor (Rattus norvegicus, UniProt P61169); test: Ancillary Binding affinity towards rat Dopamine receptor D2
Sequence of D(2) dopamine receptor (P61169 whole entry): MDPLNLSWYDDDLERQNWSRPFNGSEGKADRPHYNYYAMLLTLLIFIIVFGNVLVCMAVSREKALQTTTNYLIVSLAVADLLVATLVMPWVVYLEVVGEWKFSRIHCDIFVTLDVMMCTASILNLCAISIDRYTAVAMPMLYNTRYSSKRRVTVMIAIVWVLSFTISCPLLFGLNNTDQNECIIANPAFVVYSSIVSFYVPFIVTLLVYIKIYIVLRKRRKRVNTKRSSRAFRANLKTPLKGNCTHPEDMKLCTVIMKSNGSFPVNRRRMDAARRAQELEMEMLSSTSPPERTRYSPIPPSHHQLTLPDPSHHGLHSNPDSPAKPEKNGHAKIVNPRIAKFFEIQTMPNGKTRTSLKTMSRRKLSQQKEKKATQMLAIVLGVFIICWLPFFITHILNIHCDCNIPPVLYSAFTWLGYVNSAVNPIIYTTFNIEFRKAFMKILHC

[3] = biological target: T2, Alpha-1D adrenergic receptor (Rattus norvegicus, UniProt P23944); test: Binding affinity towards rat Alpha-1D adrenergic receptor
T2 sequence (P23944 whole entry): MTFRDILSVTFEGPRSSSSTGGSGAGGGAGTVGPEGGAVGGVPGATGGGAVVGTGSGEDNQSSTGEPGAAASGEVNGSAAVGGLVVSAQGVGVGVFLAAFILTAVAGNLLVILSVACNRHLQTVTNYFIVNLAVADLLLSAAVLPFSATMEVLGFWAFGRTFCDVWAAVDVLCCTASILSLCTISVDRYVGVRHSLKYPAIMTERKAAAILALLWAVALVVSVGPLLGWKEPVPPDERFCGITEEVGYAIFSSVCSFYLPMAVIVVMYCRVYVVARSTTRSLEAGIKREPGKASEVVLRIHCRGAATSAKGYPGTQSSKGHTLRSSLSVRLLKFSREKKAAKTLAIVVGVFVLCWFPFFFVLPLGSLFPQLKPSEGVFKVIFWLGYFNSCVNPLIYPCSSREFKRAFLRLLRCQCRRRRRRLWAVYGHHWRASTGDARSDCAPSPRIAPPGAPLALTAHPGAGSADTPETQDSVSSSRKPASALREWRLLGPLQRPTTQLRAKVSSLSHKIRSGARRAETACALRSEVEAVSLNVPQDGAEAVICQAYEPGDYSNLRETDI

[4] = biological target: T3, Alpha-1A adrenergic receptor (Rattus norvegicus, UniProt P43140); test: In vitro functional activity at Alpha-1A adrenergic receptor in rat vas deferens; assay type: tissue-based; details: read-out: pA2 (converted)
T3 sequence (P43140 whole entry): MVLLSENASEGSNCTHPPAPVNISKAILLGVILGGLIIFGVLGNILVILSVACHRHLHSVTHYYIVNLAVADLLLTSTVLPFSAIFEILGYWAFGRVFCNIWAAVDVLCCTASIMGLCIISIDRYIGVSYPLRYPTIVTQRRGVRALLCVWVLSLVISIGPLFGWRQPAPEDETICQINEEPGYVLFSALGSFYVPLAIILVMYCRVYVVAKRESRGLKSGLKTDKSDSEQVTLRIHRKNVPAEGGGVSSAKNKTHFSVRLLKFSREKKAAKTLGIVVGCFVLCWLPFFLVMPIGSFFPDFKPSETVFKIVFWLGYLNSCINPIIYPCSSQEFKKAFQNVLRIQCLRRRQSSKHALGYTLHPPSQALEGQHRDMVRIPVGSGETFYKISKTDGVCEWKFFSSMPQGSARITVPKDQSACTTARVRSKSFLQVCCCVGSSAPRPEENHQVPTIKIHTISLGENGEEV

[5] = biological target: T4, Alpha-1A adrenergic receptor (Bos taurus, UniProt P18130); test: Binding affinity towards bovine Alpha-1A adrenergic receptor
T4 sequence (P18130 whole entry): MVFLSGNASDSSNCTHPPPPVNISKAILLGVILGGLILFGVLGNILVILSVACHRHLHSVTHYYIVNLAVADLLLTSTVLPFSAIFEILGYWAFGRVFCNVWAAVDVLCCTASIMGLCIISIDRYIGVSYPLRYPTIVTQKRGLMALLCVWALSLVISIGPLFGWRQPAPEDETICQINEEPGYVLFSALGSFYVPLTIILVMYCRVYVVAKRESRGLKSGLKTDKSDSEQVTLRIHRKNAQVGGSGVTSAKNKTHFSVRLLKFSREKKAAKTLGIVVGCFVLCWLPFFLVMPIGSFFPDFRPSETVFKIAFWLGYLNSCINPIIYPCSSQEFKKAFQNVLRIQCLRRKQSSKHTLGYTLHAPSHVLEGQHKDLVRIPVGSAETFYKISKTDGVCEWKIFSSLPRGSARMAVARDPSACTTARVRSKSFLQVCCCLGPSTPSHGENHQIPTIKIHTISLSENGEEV

[6] = Ancillary Binding affinity towards rat 5-hydroxytryptamine 2 receptor
[7] = biological target: T2, Alpha-1D adrenergic receptor; test: In vitro functional activity at Alpha-1D adrenergic receptor in rat aorta; assay type: tissue-based; details: read-out: pA2 (converted)
[8] = biological target: T5, Alpha-2A adrenergic receptor (Homo sapiens, UniProt P08913); test: Ancillary Binding affinity towards cloned human Alpha-2A adrenergic receptor
T5 sequence (P08913 whole entry): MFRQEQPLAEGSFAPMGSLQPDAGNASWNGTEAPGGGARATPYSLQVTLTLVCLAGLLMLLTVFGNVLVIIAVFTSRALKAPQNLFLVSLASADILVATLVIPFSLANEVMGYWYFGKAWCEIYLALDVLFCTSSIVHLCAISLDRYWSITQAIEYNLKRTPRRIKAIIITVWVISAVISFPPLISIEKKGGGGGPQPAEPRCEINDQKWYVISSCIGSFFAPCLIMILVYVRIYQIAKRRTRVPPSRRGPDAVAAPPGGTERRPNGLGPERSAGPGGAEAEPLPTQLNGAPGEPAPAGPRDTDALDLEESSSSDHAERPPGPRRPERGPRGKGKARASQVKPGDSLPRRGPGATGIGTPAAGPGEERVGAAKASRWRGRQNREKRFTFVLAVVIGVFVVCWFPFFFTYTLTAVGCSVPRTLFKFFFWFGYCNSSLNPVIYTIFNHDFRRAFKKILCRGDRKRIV

[9] = biological target: T3, Alpha-1A adrenergic receptor; test: Binding affinity towards rat Alpha-1A adrenergic receptor
[10] = biological target: T2, Alpha-1D adrenergic receptor; test: In vitro functional activity at Alpha-1D receptor in rat aorta; assay type: tissue-based; details: read-out: pA2 (converted)

Row | SMILES | Kb [1] [nM] | pKi [2] | pKi [3] | Kb [4] [nM] | pKi [5] | pKi [6] | Kb [7] [nM] | pKi [8] | pKi [9] | Kb [10] [nM]
1 | COc1ccccc1N1CCN(CCn2c(=O)[nH]c3scc(-c4ccccc4)c3c2=O)CC1 [A-119637] | 2.04 | 7.30 | 9.67 | 8.51 | 9.56 | 6.86 | 0.0251 | 7.11 | 8.61 | –
2 | COc1ccccc1N1CCN(CCn2c(=O)[nH]c3scc(-c4cccc(C)c4)c3c2=O)CC1 [A-123189] | 1.74 | 7.77 | 9.77 | 4.37 | 9.46 | 5.66 | – | 7.08 | 8.46 | 0.02
